{"source": "patent US9637451B2", "about": "“Indole compound” (ASTELLAS PHARMA INC., priority 2014, dated 2017)", "key": {"human MT1 receptor": {"biological_target": "T1, human MT1 receptor (Homo sapiens, UniProt P48039)", "T1 construct": "expressed in transfected cells", "T1 sequence (P48039 whole entry)": "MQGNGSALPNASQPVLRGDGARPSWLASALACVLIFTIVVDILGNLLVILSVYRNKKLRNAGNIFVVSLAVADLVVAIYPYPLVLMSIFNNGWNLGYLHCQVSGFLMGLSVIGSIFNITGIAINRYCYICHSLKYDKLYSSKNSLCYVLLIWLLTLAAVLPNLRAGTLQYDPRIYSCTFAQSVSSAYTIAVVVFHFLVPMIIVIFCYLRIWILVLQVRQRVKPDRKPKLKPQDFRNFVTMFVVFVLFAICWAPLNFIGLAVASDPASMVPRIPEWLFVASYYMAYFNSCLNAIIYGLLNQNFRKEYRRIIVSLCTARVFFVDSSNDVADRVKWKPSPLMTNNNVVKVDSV", "assay": "Activation of human MT1 receptor in receptor-expressing cells, intracellular Ca2+ by FLIPR", "assay_type": "cell-based"}, "human MT2 receptor": {"biological_target": "T2, human MT2 receptor (Homo sapiens, UniProt P49286)", "T2 construct": "expressed in transfected cells", "T2 sequence (P49286 1-362)": "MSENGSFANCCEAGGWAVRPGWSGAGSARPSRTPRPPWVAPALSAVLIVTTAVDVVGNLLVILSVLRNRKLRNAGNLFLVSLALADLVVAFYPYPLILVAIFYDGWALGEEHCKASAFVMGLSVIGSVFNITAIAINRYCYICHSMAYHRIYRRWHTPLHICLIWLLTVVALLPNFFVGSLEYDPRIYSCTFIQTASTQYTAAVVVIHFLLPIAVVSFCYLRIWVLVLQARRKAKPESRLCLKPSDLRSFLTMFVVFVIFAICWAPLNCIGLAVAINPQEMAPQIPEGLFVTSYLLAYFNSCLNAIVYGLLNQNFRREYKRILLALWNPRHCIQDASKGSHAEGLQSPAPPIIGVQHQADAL", "assay": "Activation of human MT2 receptor in receptor-expressing cells, intracellular Ca2+ by FLIPR", "assay_type": "cell-based"}, "SD female rats": {"tested_on": "SD female rats", "assay": "Effect of test compound on urethral pressure in anesthetized rats", "assay_type": "in vivo, rat", "description": "SD female rats were anesthetized with urethane and subjected to laparotomy. Then, the bladder apex was incised and a catheter was inserted from the bladder apex. Further, the catheter tip was ligated and fixed to be located in the proximal urethra portion. The catheter was connected to a pressure transducer and an infusion pump. Further, a catheter for administrating the compound was fitted into the femoral vein. Physiological saline was continuously infused into the urethra and the perfusion pressure in the urethra was measured. After the urethral pressure was stabilized, the test compound that had been dissolved in physiological saline, or physiological saline including 5% dimethylacetamide and 0.5% Cremophor was administered intravenously at 0.01 mg/kg or 0.1 mg/kg, and a change in urethral pressures was measured.\nFurther, the results of administering an active metabolite of midodrine (ST-1059: purchased from CHEMIZON) (J. Urology, 118, 980-982 (1977)) which is an α1 adrenoceptor agonist and is confirmed to have a clinical effect on stress urinary incontinence at doses, 0.01 mg/kg and, 0.1 mg/kg in rats, presumed to correspond to the clinical doses are referenced and shown in the Tables below.\nThe increment value in the urethral pressures of ramelteon and the Example compounds of the present invention at the time of administration are shown in Table 3. Ex represents Example No. of the test compound and N.T represents Not Tested."}, "[1]": {"assay": "CSF-to-plasma unbound concentration ratio in rat after intravenous administration", "assay_type": "in vivo", "protocol": "A test compound (100 μg/mL, 50% acetonitrile solution) at 1% (v/v) with respect to the amount of the plasma was added to rat plasma, and dispensed to a sample for a supernatant and a sample for the plasma. The sample for a supernatant was ultracentrifuged at 436,000×g and 37° C. for 140 minutes, and the sample for the plasma was incubated at 37° C. for 140 minutes.\nAfter 140 minutes, the sample for a supernatant after the ultracentrifugation and the sample for the plasma were taken, and mixed with the blank plasma or the blank supernatant, respectively. Acetonitrile including an internal standard material was added to each of the samples with the removal of protein, and after the centrifugation at 2150×g and 4° C. for 10 minutes the supernatant was injected into LC-MS/MS.\nThe unbound fraction in the plasma was calculated by the following equation.\nTo the plasma of a rat was added a test compound (0.2 mM, 50% acetonitrile solution) in an amount corresponding to 1% (v/v) of the plasma amount, and 200 μL of obtained plasma sample was filled into a plasma chamber of a RED device insert. A buffer chamber was filled with 350 μL of PBS, followed by performing equilibrium dialysis by stirring in a CO2 incubator at 37° C. for 16 hours. The sample after the completion of the equilibrium dialysis was recovered and the volume of the plasma sample was measured. To the plasma sample after the completion of the equilibrium dialysis were added PBS, a 20 mM ammonium formate buffer, and acetonitrile including an internal standard material. Similarly, to the PBS sample after the completion of the equilibrium dialysis was added a blank plasma, a 20 mM ammonium formate buffer, and acetonitrile including an internal standard material. This sample was left to stand at 4° C. for 30 minutes and then centrifuged 1500×g for 10 minutes, and the supernatant was measured by LC-MS/MS. The unbound fraction in the plasma was calculated by the following equation. fp=Cf/{(Cp−Cf)(V/V0)+Cf}\nAt 15 minutes after intravenously administration of the test compound to the rats, the plasma and CSF were collected. A 50% acetonitrile solution and an acetonitrile including internal standard material were added to the collected plasma or CSF. After centrifuging this sample at 4° C. and 2150×g for 10 minutes, the supernatant was measured by LC-MS/MS, and the total concentration of the test compound in the plasma (Cplasma,t) and the concentration of the test compound in CSF (CCSF) were obtained. The unbound concentration in the plasma (Cplasma,u) of the test compound and the CSF-to-plasma unbound concentration ratio (Kp,uu,CSF) of the test compound was calculated by the following equation.\nThe Kp,uu,CSF values and the Kp,brain values of ramelteon and some Example compounds of the present invention are shown in Table 4. Ex represents Example No. of the test compound. Unless otherwise specified, the Kp,uu,CSF was calculated using the fp values determined by an ultracentrifugation method. Further, N.T. represents Not Tested.\n(Ramelteon represents the values of Kp,uu,CSF after 10 minutes after the intravenous administration. Further, the Kp,uu,CSF of Examples 37 and 38 was calculated using the fp values determined by an equilibrium dialysis method. In addition, N.D. denotes the concentration of the test compound in CSF that is no higher than the detection limit.)"}, "rat": {"tested_on": "rat", "assay": "Measurement test of electroencephalogram in rat (sleep-awake cycle)", "assay_type": "in vivo", "description": "After the completion of a quarantine period, the animals showing no abnormal health condition were subjected to an electroencephalogram electrode chronic implantation surgery with reference to brain atlas of Pellegrino (Plenum Press, New York (1979)), or the like. Under anesthesia with pentobarbital sodium, the rat was calibrated in a brain stereotaxic apparatus. In the frontal cortex, a monopolar silver ball electrode having a diameter of the tip of about 1 mm was placed on a hard film of the brain. Into the hippocampus, a laminated bipolar electrodes made of stainless steel was stuck. The reference electrode was screwed around the olfactory brain. Further, as for the electromyogram measurement, the lead wire was implanted in the both electrodes about 1 cm between the electrodes in the neck portion. The other end was exposed to the head portion subcutaneously. The electrodes and the lead wires were subjected to soldering with connector sockets and fixed to the skull with a dental resin or the like.\nThe rats were accommodated in a measurement cage under rat feeding and water supply on the morning of the day of administration, and accustomed to the measurement environment. After measuring the weight using an electronic scale balance, a lead wire and a connector socket were connected 30 minutes or more before the start of the electroencephalogram measurement, and the rat was accustomed in the measurement state under no anesthesia and no custody. The test compounds were intraperitoneally or orally administered to the rats and the electroencephalogram was measured continuously until 6 hours after the administration.\nRamelteon: solvent, 0.1 mg/kg, 1 mg/kg, and 10 mg/kg; intraperitoneal administration\nExample 1: solvent, 3 mg/kg, 30 mg/kg, and 300 mg/kg; oral administration\nExample 6: solvent, 10 mg/kg, 30 mg/kg, and 300 mg/kg; oral administration\nThe electrical signals of electroencephalogram and of electromyogram were applied to an electroencephalogram system and an electroencephalogram frequency analysis program of a personal computer was used to acquire the wave form of the electroencephalogram from the electroencephalograph system. In addition, the image signals of the electroencephalogram waveform were applied to an EEG video system and recorded on DVD-R using a DVD recorder. The behavior observation was carried out through a video camera at the same time as the electroencephalogram measurement and the images were also recorded on DVD-R using DVD recorder.\nThe presence or absence of abnormality in the electroencephalogram waveform in up to 6 hours from immediately after the administration, to each animal, respectively, was observed.\nThe analysis of a sleep-awake cycle was carried out using a sleep stage display-supporting program (MTS50061B, Japan Santec Corporation) based on the electroencephalogram waveforms acquired with an electroencephalogram frequency analysis program. Using the index of electroencephalogram, electromyogram, and behavior, the sleep steps were classified into an awake phase, a rest phase, a slow wave light sleep (S.W.L.S.) phase, a slow wave deep sleep (S.W.D.S.) phase, and a fast wave sleep (F.W.S., REM sleep) phase. Further, the rest phase, the slow wave light sleep phase, and the slow wave deep sleep phase were summed to determine a slow wave sleep (S.W.S., Non-REM sleep) phase. […] As the assessment criteria in the respective sleep steps, the criteria described in Japanese Pharmacological Journal 84, 25-89 (1984) were used."}, "[2]": {"tested_on": "isolated urethra in a rat", "conditions": "Patent Document 5; cited from earlier work"}, "[3]": {"conditions": "maximum reaction by ramelteon taken as 100%"}, "[4]": {"conditions": "oral, any of the doses 3, 30 and 300 mg/kg"}}, "note": "pEC50: −log10 of the molar value."}
{"molecule": "CCC(=O)NCCc1c(C)[nH]c2ccc(OCCOc3ccn(C)n3)cc12", "note": "[Example 1, N-[2-{2-methyl-5-(2-[(1-methyl-1H-pyrazol-3-yl)oxy]ethoxy}-1H-indol-3-yl)ethyl]propanamide]", "values": [{"measurement": "pEC50", "setting": "human MT1 receptor; HEK293EBNA1 cells stably expressing human MT1 and Gq/i chimeric G protein, Ca2+ FLIPR", "value": 8.41}, {"measurement": "Emax", "setting": "human MT1 receptor; [3]", "value": 95, "unit": "%"}, {"measurement": "pEC50", "setting": "human MT2 receptor; HEK293 cells stably expressing human MT2 and Gq/i chimeric G protein, Ca2+ FLIPR", "value": 7.85}, {"measurement": "Emax", "setting": "human MT2 receptor; [3]", "value": 119, "unit": "%"}, {"measurement": "urethral pressure increasing action", "setting": "SD female rats; dose of 0.01 mg/kg", "value": "good urethral pressure increasing action"}, {"measurement": "Kp uu at 0.25 h", "setting": "[1]; CSF and plasma (unbound), iv, 15 minutes after intravenous administration, fp by ultracentrifugation method", "value": 0.05}, {"measurement": "occupancy in the respective sleep steps of electroencephalogram", "setting": "rat; [4]", "value": "no change in the occupancy in the respective sleep steps of electroencephalogram could be seen"}, {"measurement": "sleep action", "setting": "rat; [4]", "value": "there was no sleep action"}]}
{"molecule": "CCC(=O)NCC[C@@H]1CCc2ccc3c(c21)CCO3", "note": "[Ramelteon, ramelteon, reference compound]", "values": [{"measurement": "Increment value in the urethral pressures compared with ST-1059", "setting": "SD female rats; intravenous", "value": "equal to or more than that of ST-1059"}, {"measurement": "Kp,uu,CSF", "setting": "[1]; 10 minutes after the intravenous administration", "value": 1.74}, {"measurement": "Kp uu at 10 min", "setting": "[1]; CSF and plasma (unbound), iv, 10 minutes after the intravenous administration", "value": "> 1"}, {"measurement": "occupancy of the sleep step of electroencephalogram", "setting": "rat; 0.1 mg/kg intraperitoneal, up to 6 hours", "value": "there is a tendency that the occupancy of the sleep step of electroencephalogram from a dose of 0.1 mg/kg increases"}, {"measurement": "occupancy of the respective sleep steps", "setting": "rat; 1 mg/kg intraperitoneal, up to 6 hours", "value": "significantly increases"}, {"measurement": "sleep action", "setting": "rat; intraperitoneal 0.1, 1 and 10 mg/kg", "value": "there is a sleep action"}, {"measurement": "contraction of isolated urethra, increase of urethral pressure", "setting": "[2]", "value": "contract the isolated urethra in a rat to increase the urethral pressure of the rat"}]}
